Source: a melting point compilation (Tetko et al.; mined from patent text by program, amines drawn as free bases though some values may be those of a salt)

| SMILES | melting point |
| --- | --- |
| O=C(O)C1C=CCn2c(=O)n(CCCl)c(=O)n21 (configuration not stated) | 150 to 151 °C |
| OC(Cc1ccc(Cl)cc1Cl)(Cn1ccnc1)c1ccc(F)cc1 (configuration not stated) | 178 to 179 °C |
| CC(CS)C(=O)N(CC(=O)O)C1CC1 (configuration not stated) | 89 to 91 °C |
| Nc1ccc2nccn2n1 | 198 to 202 °C |
| Oc1ccc(CCNCC(O)c2ccccn2)cc1 (racemic) | 112 to 114 °C |
| CCOC(=O)C(F)(F)C(=O)[C@H](Cc1ccccc1)NC(=O)Cn1c(-c2cccc(C)c2)ncc(NC(=O)OCc2ccccc2)c1=O | 138 to 140 °C |
| Cc1cn(Cc2cc(C)c3c(c2)-c2[nH]nc(-c4ccsc4)c2C3)cn1 | 240 to 242 °C |
| Cc1cc(Oc2ccc(N)cc2)ccc1-c1ccc(Oc2ccc(N)cc2)cc1C | 140 °C |
| O=C(CBr)c1ccc(OCc2ccccc2)c(OCc2ccccc2)c1Cl | 94 to 96 °C |
| Cc1cc(C(N)=O)ncc1C(c1c(F)ccc(F)c1F)S(=O)(=O)CCC(Cl)(Cl)Cl (configuration not stated) | 173 to 175 °C |
| N#CCCC(C=O)(c1ccccc1)c1ccccc1 | 80 to 82 °C |
| O=c1nc(-c2ccncc2O)nc2n(C3CCCC3)[nH]c(C(F)(F)F)c1-2 | 205 to 206 °C |
| CN(C)C1(c2ccccc2)CCC2(NCCc3c2[nH]c2ccccc32)C(Sc2ccccc2)C1 (configuration not stated) | 171 to 173 °C |
| N#Cc1ccc(-c2cccc(-c3nc4cc(C#N)ccc4[nH]3)c2)nc1 | 281 to 282 °C |
| CN1Cc2c(C(N)=O)ncn2-c2ccc(Cl)cc2C1=O | 275 to 277 °C |
| N#Cc1ccc2oc(CCc3cc4cc(C#N)ccc4o3)cc2c1 | 243 to 244 °C |
| COc1cc2ncn(CCCCCl)c(=O)c2cc1OC | 117 °C |
| ON=C(Nc1ccc(C(F)(F)F)cc1)C1=NN(c2ccc(Cl)cc2)C(c2ccc(F)cc2)C1 (configuration not stated) | 188 to 191 °C |
| CCOC(=O)c1cc2c(CC)nc(CC)cc2n(Cc2ccc(-c3ccccc3-c3nnn(C(c4ccccc4)(c4ccccc4)c4ccccc4)n3)cc2)c1=O | 110 to 112 °C |
| CCCc1c(OCc2ccc(C(=O)O)cc2OC)ccc(C(C)=O)c1O | 248 to 250 °C |

| SMILES | melting point |
| --- | --- |
| CCOC(=O)c1ccc(N2CCC(NC(=O)OC(C)(C)C)CC2)nc1 | 140 to 142 °C |
| NC(=O)c1ccc(-c2cccc3cc(Cc4cccc(C(F)(F)F)c4)sc23)nc1 | 222 to 223 °C |
| CCCCCC/C=C/CCCCCCCC(=O)Nc1nc(CC(=O)O)cs1 | 117 to 118 °C |
| O=c1ccn(-c2cccc(C(F)(F)F)c2)nc1-c1nncn1-c1ccccc1 | 103 to 104 °C |
| Cc1ccc(-c2ncc(C)c(C)n2)cc1 | 114 °C |
| CCCCc1nc(C(=O)OC)c(C(=O)OC)[nH]1 | 88 °C |
| CC(C)(C)c1ccc(NC(=O)c2ccc(C3(C)OCCCO3)cc2)cc1 | 148 to 149 °C |
| CCC(=O)N1CCC(NC(=O)NC2CCCCCC2)CC1 | 164 to 172 °C |
| CC(C)c1ccc(NC(=O)c2ccc(C(=O)O)cn2)cc1C(C)C | 188 to 190 °C |
| CC(C)Nc1ccc(O)cc1 | 143 °C |
| CCCc1c(OCCCCCCc2cccc(OCC(=O)O)c2CCC(=O)O)ccc2c1OCCC2=O | 127 to 129 °C |
| N#Cc1cc(F)cc2c1OCCC21SC(=O)NC1=O (configuration not stated) | 230 to 232 °C |
| CC(C)CCCC(C)C1CCC2C3CC=C4CC(OC(=O)C(C)(C)COP(=O)(O)OCCBr)CCC4(C)C3CCC12C (configuration not stated) | 98 °C |
| OC(CCc1cccnc1)COc1ccc(OCc2ccccc2)cc1 (configuration not stated) | 79 to 82 °C |
| COc1ccc2c(N)cccc2c1C(F)(F)F | 120 °C |
| CNC(=O)[C@@H](C[C@H](O)[C@H](CC1CCCCC1)NC(=O)OC(C)(C)C)C(C)(C)O | 174 to 175 °C |
| CCCCCCCCCCCCn1nnc(C(C(=O)Nc2cc(C)c(O)c(C)c2C)c2ccccc2)n1 (single isomer, unassigned; (+)) | 105 °C |
| N#Cc1ccc(Cc2ccc(-c3ccc(C#N)cn3)o2)cc1 | 204 to 206 °C |
| CC1=C(C(=O)OCOC(=O)C(C)(C)C)N2C(=O)C(NC(=O)OC(C)(C)C)C2SC1 (configuration not stated) | 97 °C |
| CCCCCC(CC(=O)Nc1cc(CO)ccc1C(C)(C)C)c1ccc(OC)cc1OC (configuration not stated) | 125 to 126 °C |

| SMILES | melting point |
| --- | --- |
| CNC(=S)NS(=O)(=O)c1cc(CCNC(=O)c2cc(C(C)(C)C)ccc2OC)ccc1OCCOC | 61 °C |
| CCCCn1c(=O)c2c(ncn2S(=O)(=O)c2c(C)noc2C)n(CCCC)c1=O | 103 to 105 °C |
| CC(C)c1ccc(S(=O)(=O)n2c(Cc3ccc(C(=O)O)cc3)cc3cc(Cl)ccc32)cc1 | 192 °C |
| COc1ccc(-c2ccncc2)cc1Br | 82 to 84 °C |
| CCCCCCCCOc1ccc(-c2ccc(CCl)cc2)cc1 | 101 °C |
| N#Cc1cc(C#N)cc(CO)c1 | 119 to 120 °C |
| CCNC(=O)c1ccc(COC(=O)c2ccc(OC)c(C(C)(C)C)c2)cc1 | 107 to 108 °C |
| COc1ccc2c(c1)C1(CCCC1)C(O)(CC#N)CC2 (configuration not stated) | 126 to 127 °C |
| O=S(=O)(c1ccc(O)cc1)N(CC(F)(F)F)c1ccc(O)cc1 | 172 to 173 °C |
| CCCCCCCCNC(=O)CCCC(C)(C)c1ccc(O)cc1O | 110 to 113 °C |
| CN(C)CCCCCCc1ccc(NC=NO)cc1 | 96 to 97 °C |
| O=C(O)CNC(=O)COc1nc(F)c(Cl)cc1Cl | 155 to 157 °C |
| O=Cc1ccc(OC2OC(CO)C(O)C(O)C2O)cc1 (configuration not stated) | 177 °C |
| Cc1ccc2ccc(C(N)=O)cc2c1 | 210 to 212 °C |
| CC(C)(C)Nc1nc(Cl)c(C#N)cc1F | 84 to 85 °C |
| CCc1c(C(=O)C(N)=O)c2c(OCC(=O)N(C)OC)cccc2n1Cc1ccccc1 | 168 to 170 °C |
| O=C(Nc1ccc(-n2nc(C(F)(F)F)cc2C2CC2)cc1)c1ccncc1F | 143 to 146 °C |
| CNCCN(C)C(=O)[C@@H]1CCCN1S(=O)(=O)c1ccc(Cl)c(COc2cccc3c(-n4ccnc4)cc(C)nc23)c1Cl | 116 °C |

Second part, the compound after the results:

| melting point | SMILES |
| --- | --- |
| 107 to 108 °C | COc1ccccc1N1CCN(CCCC2CCc3onc(-c4ccc(F)cc4)c3C2=O)CC1 (configuration not stated) |
| 97 to 99 °C | N#CC(c1ccc([N+](=O)[O-])cc1)c1ccccn1 (racemic) |
| 86 to 87 °C | C1=C(CCC2=Cc3ccccc32)c2ccccc21 |
| 140 to 142 °C | CC(C)CC(C=CCC(N)=O)NC(=O)C1CCCN1C(=O)OCc1ccccc1 (configuration not stated) |
| 57 to 58 °C | Cc1cc(N)c(OCc2ccccc2)c(Cl)c1C |
| 143 to 145 °C | O=[N+]([O-])c1c(Nc2ccon2)cnc2c1COCC2 |
| 275 to 277 °C | CC(=O)Nc1c(-c2ccccc2)c(=O)[nH]c2cc(Cl)ccc12 |
| 98 to 100 °C | CCCCCCCCCCCCC(C)CNc1cc(C)c([N+](=O)[O-])cc1C(=O)O (configuration not stated) |
| 258 to 260 °C | Cn1cc(C2=C(c3cccc4ccccc34)C(=O)NC2=O)c2ccccc21 |
| 95 to 97 °C | Cc1ccc(Oc2ccc([N+](=O)[O-])cc2)c(O)c1 |
| 102 °C | O=Cc1ccc(OCCN2OCc3ccccc3C2=O)cc1 |
| 200 to 217 °C | NC(=O)NC(=O)c1coc2ccccc2c1=O |
| 139 to 141 °C | Cc1cc(O)c(SCc2ccc(Cl)cc2)c(=O)o1 |
| 95 to 96 °C | O=Cc1cccc2ccc(F)cc12 |
| 100 to 102 °C | CCCCc1nnc(SC)n1Cc1ccc(-c2ccccc2-c2nnn[nH]2)cc1 |
| > 300 °C | Cc1cccc(NC(=O)Nc2c(-c3ccccc3)c3cc(Cl)ccc3c(=O)n2C)c1 |
| 102 to 104 °C | Cc1c(Cl)nc2sc(SCc3ccccc3)nn2c1=O |
| 79.5 to 80.5 °C | N#CCC(=O)c1ccc(C(F)(F)F)cc1[N+](=O)[O-] |
| 191 to 192 °C | CC(C)n1nc(-c2c(NCc3ccccc3)nc(N)nc2-c2ccc(F)cc2)ccc1=O |
| 121 to 122 °C | Cc1oc(-c2ccccc2)nc1COc1ccc(CO)cn1 |
| 226 to 227 °C | Cc1nnc(C2=C(O)c3ccccc3S(=O)(=O)N2C)o1 |
| 59 °C | COC(=O)c1ccc(Cl)c(CN2CCN(C)C2=O)c1Cl |

| melting point | SMILES |
| --- | --- |
| 240 to 242 °C | COc1ccc(Cn2c(S)nnc2C(N)=O)cc1 |
| 110 to 113 °C | CC(=O)Nc1ccc(C=O)cc1Cl |
| 100 to 101 °C | O=[N+]([O-])CC(O)c1nn(Cc2ccccc2)c2ccccc12 (configuration not stated) |
| 128 to 129 °C | Cc1nn(-c2ccc(C(F)(F)F)cn2)cc1CCCOc1ccccc1CC(=O)O |
| 89 to 91 °C | Cc1nc(-c2ccc(N)c(C#N)c2)c[nH]1 |
| 105 °C | COC(=O)C(COc1ccc(Cl)cc1C#N)Oc1ccccc1Cl (configuration not stated) |
| 134 °C | CC1(C)OC(=O)N(Cc2ccccc2[N+](=O)[O-])C1=O |
| 44 to 46 °C | CC1(C)CCC2=C(O1)c1ccccc1C1(OCC(CO)O1)C2=O (configuration not stated) |
| 169 °C | COCCOC(=O)C1=C(C)NC(C)=C(C(=O)OCC(F)(F)F)C1c1cccc([N+](=O)[O-])c1 (configuration not stated) |
| 224 to 227 °C | O=C1Nc2ccccc2Oc2c1csc2Cl |
| 170 °C | COC(=O)/C=C/n1cnc2ccc(SC)cc2c1=O |
| 211 to 212 °C | Cc1ncc2c(n1)-c1ccccc1N(C(=O)c1ccc([N+](=O)[O-])cc1)CC2 |
| 106 to 108 °C | COc1ccc2cc([C@H](C)C(=O)NN)ccc2c1 |
| 72.5 to 74.5 °C | COc1ccccc1NC(=O)c1ccc(C)cc1 |
| 169 to 170 °C | OCc1cc2ccc3c4ccccc4ccc3c2s1 |
| 62 to 63 °C | Cc1c(C)c2c(c(C)c1N)CC(C)(CCc1ccc(F)cc1)O2 (configuration not stated) |
| 135 to 137 °C | COc1ccc(/C=C/C(=O)Nc2ccccc2C(=O)OCC(=O)NCC(C)(C)SN=O)cc1OC |
| 153 to 154 °C | CCc1ccc(OC(C)=O)c(C2(OC(C)=O)C(=O)c3ccccc3C2=O)c1 |
| 116 to 118 °C | Cn1ncc(C(=O)c2ccc(Cl)cc2Cl)c1OCc1ccc([N+](=O)[O-])cc1 |
| 50 to 51 °C | CCCOc1ccc(CO)nc1OCc1ccccc1 |
| 231 to 233 °C | CS(=O)(=O)c1ccc(C2SCC(=O)N2c2ccc(Cl)cc2)cc1 (configuration not stated) |
| 155 to 175 °C | O=C(O)C=C1c2ccccc2CCc2cc(Cl)ccc21 |
